Laboratory results as given in US20250064846A1, “TREATMENT AND PREVENTION OF TRIGEMINAL NEURALGIA” (THE JOHNS HOPKINS UNIVERSITY, priority 2022, published 2025).

Tests used:
[1] = tested on: maxillary nerves of mice after nerve ligation; assay: Oxidative stress assay in maxillary nerves (4-HNE, protein carbonylation, MDA); format: in vivo, mouse; settings: for levels of 4-HNE in maxillary nerves after nerve ligation / protein carbonylation in maxillary nerves after nerve ligation: western blot normalized to β-actin, daily i.p. pre-treatment, vs vehicle
Protocol: (§1) Western Blotting Western blotting was performed as previously described (See Vasavda, C. et al. Cell Chem Biol 26, 1450-1460.e7 (2019)). Briefly, tissues were homogenized at 4° C. in lysis buffer (pH 7.4 solution of 50 mM Tris-HCl, 150 mM NaCl, 0.1% SDS, 0.5% sodium deoxycholate, and 1% Triton X-100) supplemented with protease inhibitors (Sigma). When dissecting maxillary nerves for immunoblot analysis, nerves were as dissected both as proximally towards the semilunar ganglion and as distal to the skin as possible. Nerves were harvested 11 days after surgery, immediately after the final behavioral test. Lysates were then pulse sonicated and centrifuged at 16,000 g for 10 min at 4° C. Fifteen micrograms of cleared lysate were run on a 4-12% polyacrylamide Bis-Tris gradient gel in running buffer (pH 7.3 solution of 50 mM MES, 50 mM Tris Base, 0.1% SDS, 1 mM EDTA) and then transferred to a PVDF membrane. Membranes were blocked with 5% milk in TBS-T (pH 7.6 solution of 16 mM Tris-HCl, 140 mM NaCl, 0.1% Tween-20) for 1 hr at 25° C. and then incubated with primary antibodies in 3% bovine serum albumin (BSA) (w/v) in TBS-T overnight at 4° C. The following day, membranes were washed with TBS-T, and then incubated with secondary antibodies in 3% BSA (w/v) in TBS-T for 1 hr at 25° C. The following primary antibodies were used: rabbit anti-4-HNE (Abeam ab46545; 1:1.000), rabbit anti-TRPA1 (Novus Biologicals NB110-40763; 1:1,000), rabbit anti-DNP (Millipore Sigma 90451; 1:150), and mouse anti-β-actin (Santa Cruz Biotech sc-47778 HRP; 1:10,000). The following secondary antibodies were used: donkey anti-rabbit IgG (GE Healthcare NA934; 1:10,000) and goat anti-rabbit (Millipore Sigma 90452; 1:300).
Oxidative Stress Assay % 4-HNE was quantified by Western blot as described above with a rabbit anti-4-HNE (Abeam ab46545; 1:1,000) primary antibody. Protein carbonylation was assessed with the OxyBlot Protein Oxidation Detection Kit as per the manufacturer's instructions. Protein carbonylation was quantified by western blot as described above with a rabbit anti-DNP (Millipore Sigma 90451; 1:150) primary antibody. MDA was quantified with the OxiSelect TBARS Assay Kit as per the manufacturer's instructions. Concentrations below the limit of detection (LOD) were censored and substituted with a constant value of the […].

[2] = tested on: NRF2 target genes; assay: Quantitative PCR of NRF2 target genes from maxillary nerves; format: in vivo, mouse; settings: qPCR normalized to Actb, 11 days of treatment, i.p.; for Hmox1 expression in maxillary nerves / Prdx1 expression in maxillary nerves / Txnrd1 expression in maxillary nerves: exemestane 10 or JQ-1 40 mg/kg
Protocol: FIGS. 17A-17J show differential upregulation of NRF2 target genes after treatment with exemestane and JQ-1. Quantitative PCR analysis of Ngo1, Hmox1 Txnrd1, Prdx1, and Gclc, as indicated, normalized to Actb from maxillary nerves of mice after 11 days of treatment with either exemestane (FIGS. 17A-17E; 10 mg/kg, i.p.) or JQ-1 (FIGS. 17F-17J; 40 mg/kg, i.p.) compared to vehicle is shown. Points represent individual mice. Median and range depicted. *=P<0.05. **=P<0.01, and ns=P>0.05 by two-tailed unpaired Student's t-test.
DNA/RNA Isolation. PCR, and Quantitative-PCR (q-PCR) Total cellular or tissue DNA/RNA was extracted using the DNeasy Blood & Tissue Kit (Qiagen) for DNA or RNeasy Plus Universal Kit (Qiagen) for RNA per the manufacturer's instructions. PCR was performed with the Platinum Taq DNA Polymerase High Fidelity Kit (Invitrogen), whereas q-PCR was performed with the TaqMan RNA-to-Ct I-Step Kit (Applied Biosystems).

[3] = tested on: TRPA1; assay: Western blot for TRPA1 from maxillary nerves; format: in vivo, mouse; settings: normalized to β-actin; vs vehicle
Excerpt: FIGS. 15A-15H are western blots for TRPA1 (FIGS. 15A, 15C, 15E, and 15G) and graphs of relative TRPA1 expression (FIGS. 15B, 15D, 15F and 15H) from maxillary nerves of mice following constriction compared to sham surgery (FIG. 15A-15B) or treatment with sulforaphane (FIG. 15C-15D), exemestane (FIG. 15E-15F), or JQ-1 (FIG. 15G-15H), normalized to β-actin. Lanes and points represent individual mice. Median and range depicted in graphs of relative TRPA1 expression. ns=P>0.05 by two-tailed unpaired Student's t-test.
as §1, with “The following secondary antibodies were used: donkey anti-rabbit IgG (GE Healthcare NA934; 1:10,000) and goat anti-rabbit (Millipore Sigma 90452; 1:300).” left out

[4] = biological target: T1, TRPA1 (Homo sapiens, UniProt O75762); assay: Calcium imaging of HEK293 cells transiently expressing WT TRPA1; format: cell-based; settings: for inhibition of TRPA1 channel activity: applied after 4-HNE, 1 μM exemestane, 100 μM JQ-1, 10 μM sulforaphane; for activation of TRPA1: exemestane 1-100 μm, JQ-1 as high as 100 μM, 10 μM sulforaphane
T1 construct: expressed in transfected cells; host or cells: HEK293
Protocol: Calcium Imaging and Analysis Calcium imaging and analysis was performed as previously described (See Meixiong, J. et al. Elife 8, (2019)). Briefly, cells were imaged in calcium imaging buffer (CIB; 10 mM HEPES, 1.2 mM NaHCO3, 130 mM NaCl, 3 mM KCl, 2.5 mM CaCl2, 0.6 mM MgCl2, 20 mM glucose, and 20 mM sucrose at pH 7.4 and 290-300 mOsm). To monitor changes in intracellular [Ca^2+]([Ca^2+]i), cells were loaded with either 1 μM Fura 2-AM (HEK293 cells) or 1 μM Fluo 4-AM (trigeminal neurons) for 30 min in the dark at 37° C. in CIB just prior to imaging. With Fura 2-AM, emission at 510 nm was monitored following excitation at both 340 nm and 380 nm. With Fluo 4-AM, emission at 520 nm was monitored following excitation at 488 nm. Cells were identified as positively responding if [Ca^2+]i rose by 15% compared to baseline. Damaged, detached, high-baseline, and motion-activated cells were excluded from analysis.
HEK293 cells were plated on poly-D-lysine-coated coverslips and transiently transfected with the vector backbone or constructs encoding WT or mutant TRPA1. Unless otherwise noted, cells were imaged for 30 s to establish a baseline before compounds were added. Vehicle was first applied for 30 s, after which 100 μM iodoacetamide, 1 mM H2O2, or 100 μM 4-HNE was applied. CSF from cases and controls was diluted into calcium imaging buffer 1:50 prior to each trial. 50 μM of the non-selective TRP channel inhibitor ruthenium red was applied at the end of every imaging trial.

[5] = tested on: NRF2; assay: NRF2/MAP2 immunostaining in trigeminal ganglia; format: in vivo, mouse; settings: immunohistochemistry 24 h after the fourth dose; 10 mg/kg, i.p.

T1 sequence (O75762 whole entry): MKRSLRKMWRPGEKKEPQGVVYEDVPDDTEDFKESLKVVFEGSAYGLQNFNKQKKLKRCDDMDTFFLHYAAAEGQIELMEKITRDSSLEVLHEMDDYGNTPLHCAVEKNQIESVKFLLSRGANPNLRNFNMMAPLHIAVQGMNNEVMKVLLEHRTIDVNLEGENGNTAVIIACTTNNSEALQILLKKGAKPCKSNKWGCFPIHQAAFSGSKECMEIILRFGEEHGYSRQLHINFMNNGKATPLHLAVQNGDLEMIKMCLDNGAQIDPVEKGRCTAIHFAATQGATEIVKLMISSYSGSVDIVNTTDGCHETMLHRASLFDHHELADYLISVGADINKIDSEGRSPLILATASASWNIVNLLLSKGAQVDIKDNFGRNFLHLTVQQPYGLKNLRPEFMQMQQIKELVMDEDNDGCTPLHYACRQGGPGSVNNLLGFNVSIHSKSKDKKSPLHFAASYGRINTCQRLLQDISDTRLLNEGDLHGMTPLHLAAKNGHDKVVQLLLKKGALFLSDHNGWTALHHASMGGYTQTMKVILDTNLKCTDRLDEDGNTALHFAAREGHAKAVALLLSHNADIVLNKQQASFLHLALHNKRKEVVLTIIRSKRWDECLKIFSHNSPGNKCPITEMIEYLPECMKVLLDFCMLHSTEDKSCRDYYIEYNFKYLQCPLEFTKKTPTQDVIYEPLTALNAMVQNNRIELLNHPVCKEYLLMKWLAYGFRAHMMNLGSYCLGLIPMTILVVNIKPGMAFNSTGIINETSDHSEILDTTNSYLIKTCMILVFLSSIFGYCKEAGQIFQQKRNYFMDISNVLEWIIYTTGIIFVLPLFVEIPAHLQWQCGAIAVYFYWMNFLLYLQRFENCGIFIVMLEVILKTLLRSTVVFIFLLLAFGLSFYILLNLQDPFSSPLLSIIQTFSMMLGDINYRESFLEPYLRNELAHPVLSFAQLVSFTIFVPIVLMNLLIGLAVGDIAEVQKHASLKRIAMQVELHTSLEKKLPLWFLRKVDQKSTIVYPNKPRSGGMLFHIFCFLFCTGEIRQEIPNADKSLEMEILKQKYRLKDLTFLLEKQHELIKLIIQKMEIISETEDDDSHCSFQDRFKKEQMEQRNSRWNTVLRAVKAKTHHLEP

SMILES | levels of 4-HNE in maxillary nerves after nerve ligation [1] | protein carbonylation in maxillary nerves after nerve ligation [1] | Hmox1 expression in maxillary nerves [2] | Prdx1 expression in maxillary nerves [2] | Txnrd1 expression in maxillary nerves [2] | TRPA1 expression in maxillary nerves [3] | inhibition of TRPA1 channel activity [4] | activation of TRPA1 [4] | NRF2 expression in neurons of the trigeminal ganglion [5] | Nqo1 expression in maxillary nerves ([2]; exemestane 10 mg/kg) | malondialdehyde in maxillary nerves after nerve ligation ([1]; sulforaphane 10 mg/kg, i.p., normalized to protein)
Cc1sc2c(c1C)C(c1ccc(Cl)cc1)=N[C@@H](CC(=O)OC(C)(C)C)c1nnc(C)n1-2 [JQ-1, (S)-tert-butyl 2-(4-(4-chlorophenyl)-2,3,9-trimethyl-6H-thieno[3,2-f][1,2,4]triazolo[4,3-a][1,4]diazepin-6-yl)acetate] | reduced | reduced | most potently upregulated | upregulated | did not increase | did not affect TRPA1 expression | Neither sulforaphane, exemestane, nor JQ-1 inhibited TRPA1 channel activity | do not activate TRPA1 | – | – | –
C=C1C[C@@H]2[C@H](CC[C@]3(C)C(=O)CC[C@@H]23)[C@@]2(C)C=CC(=O)C=C12 [exemestane, 6-methylenandrosta-1,4-diene-3,17-dione] | reduced | reduced | upregulated | upregulated | upregulated | did not affect TRPA1 expression | Neither sulforaphane, exemestane, nor JQ-1 inhibited TRPA1 channel activity | did not activate TRPA1 | robustly increased NRF2 expression | upregulated | –
C[S+]([O-])CCCCN=C=S (stereo not shown) [sulforaphane, 1-isothiocyanato-4-(methanesulfinyl)butane] | reduced | reduced | – | – | – | did not affect TRPA1 expression | Neither sulforaphane, exemestane, nor JQ-1 inhibited TRPA1 channel activity | Neither sulforaphane nor JQ-1 activate TRPA1 | robustly increased NRF2 expression | – | reduced
